Test results: patent US11548868B2, “Heterocyclic compounds, compositions comprising heterocyclic compound, and methods of use thereof” (JS INNOPHARM (SHANGHAI) LTD, priority 2017, dated 2023)

Key:
[1] = target: T1, TDO2 in A172 cancer cells (Homo sapiens, UniProt P48775); assay: TDO2 Cellular Assay (kynurenine production in A172 cancer cells); format: cell-based; conditions: L-Trp 1 mM, 24 hours incubation, kynurenine at 490 nm
T1 construct: endogenous in cells; host or cells: A172 cancer cells
T1 sequence (P48775 whole entry): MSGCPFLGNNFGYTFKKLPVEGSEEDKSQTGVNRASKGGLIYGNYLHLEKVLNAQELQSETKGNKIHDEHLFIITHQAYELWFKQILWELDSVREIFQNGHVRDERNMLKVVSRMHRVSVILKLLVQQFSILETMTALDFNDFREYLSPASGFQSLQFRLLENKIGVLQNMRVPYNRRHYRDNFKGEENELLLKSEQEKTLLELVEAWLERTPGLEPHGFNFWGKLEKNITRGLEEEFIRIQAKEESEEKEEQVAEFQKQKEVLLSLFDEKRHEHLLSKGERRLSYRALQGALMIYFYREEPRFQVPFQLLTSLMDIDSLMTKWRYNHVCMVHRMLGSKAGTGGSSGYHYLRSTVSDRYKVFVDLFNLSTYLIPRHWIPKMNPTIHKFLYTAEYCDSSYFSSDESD
How it was run: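 A172 cells seeded overnight, then given 1 mM L-Trp and test compound (0–25 μM, 0.25% DMSO) for 24 h at 37 °C. Supernatant treated with TCA at 50 °C to convert N-formylkynurenine, kynurenine detected with p-dimethylaminobenzaldehyde at 490 nm; IC50 by non-linear regression of inhibition versus DMSO control.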

[2] = target: T2, IDO1 in Hela cancer cells (Homo sapiens, UniProt P14902); assay: IDO1 Cellular Assay (kynurenine production in IFN-γ stimulated Hela cancer cells); format: cell-based; conditions: human IFN-γ 50 ng/mL, 48 hours incubation, kynurenine at 490 nm
T2 construct: endogenous in cells; host or cells: Hela cancer cells stimulated with human IFN-γ
T2 sequence (P14902 whole entry): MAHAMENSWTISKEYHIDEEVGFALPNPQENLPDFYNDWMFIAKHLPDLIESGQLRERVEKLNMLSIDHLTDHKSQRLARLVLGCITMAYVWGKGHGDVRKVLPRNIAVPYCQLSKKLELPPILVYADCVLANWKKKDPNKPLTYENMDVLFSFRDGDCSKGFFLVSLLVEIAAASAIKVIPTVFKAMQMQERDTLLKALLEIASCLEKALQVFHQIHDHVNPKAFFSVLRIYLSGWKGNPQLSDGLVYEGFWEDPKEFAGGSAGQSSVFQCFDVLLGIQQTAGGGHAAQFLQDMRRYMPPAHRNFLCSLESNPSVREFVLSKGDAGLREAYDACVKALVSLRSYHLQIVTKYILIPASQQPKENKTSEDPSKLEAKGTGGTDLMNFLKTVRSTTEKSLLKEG
How it was run: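 HeLa cells stimulated with 50 ng/mL IFN-γ (final) and treated 48 h with compound (0–25 μM final, 0.25% DMSO). Supernatant kynurenine measured after TCA hydrolysis and p-dimethylaminobenzaldehyde reaction at 490 nm; inhibition vs DMSO control, IC50 by non-linear regression.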

O[C@@]1(c2cc(Cl)cc3cn[nH]c23)C[C@H]2C[C@H]2C1 [Example 118, (1R,3r,5S)-3-(5-chloro-1H-indazol-7-yl)bicyclo[3.1.0]hexan-3-ol]
IC50 [1]: 1000 to 5000 nM
IC50 [2]: > 5000 nM

O=C(N[C@H]1[C@@H]2C[C@@](O)(c3cc(Cl)cc4[nH]ncc34)C[C@@H]21)c1ccc(Cl)cc1 [Example 119, 4-chloro-N-((1R,3r,5S,6r)-3-(6-chloro-1H-indazol-4-yl)-3-hydroxybicyclo[3.1.0]hexan-6-yl)benzamide]
IC50 [1]: ≤ 500 nM
IC50 [2]: ≤ 500 nM

O=C(NC1CC1)N[C@H]1[C@@H]2C[C@@](O)(c3cc(Cl)cc4[nH]ncc34)C[C@@H]21 [Example 120, 1-((1R,3r,5S,6r)-3-(6-chloro-1H-indazol-4-yl)-3-hydroxybicyclo[3.1.0]hexan-6-yl)-3-cyclopropylurea]
IC50 [1]: ≤ 500 nM
IC50 [2]: > 5000 nM

O=C(Nc1ccc(Cl)cc1)N[C@H]1[C@@H]2C[C@@](O)(c3cc(Cl)cc4[nH]ncc34)C[C@@H]21 [Example 121, 1-((1R,3r,5S,6r)-3-(6-chloro-1H-indazol-4-yl)-3-hydroxybicyclo[3.1.0]hexan-6-yl)-3-(4-chlorophenyl)urea]
IC50 [1]: ≤ 500 nM
IC50 [2]: ≤ 500 nM

O=C(Nc1cccc(Cl)c1)N[C@H]1[C@@H]2C[C@@](O)(c3cc(Cl)cc4[nH]ncc34)C[C@@H]21 [Example 122, 1-((1R,3r,5S,6r)-3-(6-chloro-1H-indazol-4-yl)-3-hydroxybicyclo[3.1.0]hexan-6-yl)-3-(3-chlorophenyl)urea]
IC50 [1]: 1000 to 5000 nM
IC50 [2]: 1000 to 5000 nM

O=S(=O)(NC1CCCCC1)N[C@H]1[C@@H]2C[C@@](O)(c3cc(Cl)cc4[nH]ncc34)C[C@@H]21 [Example 123, N′-cyclohexyl-N-((1R,3r,5S,6r)-3-(6-chloro-1H-indazol-4-yl)-3-hydroxybicyclo[3.1.0]hexan-6-yl)sulfuric diamide]
IC50 [1]: ≤ 500 nM
IC50 [2]: 1000 to 5000 nM

O=C(N[C@H]1[C@@H]2C[C@@](O)(c3cc(Cl)cc4[nH]ncc34)C[C@@H]21)c1cccc(Cl)c1 [Example 124, 3-chloro-N-((1R,3r,5S,6r)-3-(6-chloro-1H-indazol-4-yl)-3-hydroxybicyclo[3.1.0]hexan-6-yl)benzamide]
IC50 [1]: ≤ 500 nM
IC50 [2]: ≤ 500 nM

CCNC(=O)N[C@H]1[C@@H]2C[C@@](O)(c3cc(Cl)cc4[nH]ncc34)C[C@@H]21 [Example 125, 1-((1R,3r,5S,6r)-3-(6-chloro-1H-indazol-4-yl)-3-hydroxybicyclo[3.1.0]hexan-6-yl)-3-ethylurea]
IC50 [1]: ≤ 500 nM
IC50 [2]: > 5000 nM

O=C(NC1CCCCC1)N[C@H]1[C@@H]2C[C@@](O)(c3cc(Cl)cc4[nH]ncc34)C[C@@H]21 [Example 126, 1-((1R,3r,5S,6r)-3-(6-chloro-1H-indazol-4-yl)-3-hydroxybicyclo[3.1.0]hexan-6-yl)-3-cyclohexylurea]
IC50 [1]: ≤ 500 nM
IC50 [2]: > 5000 nM

COc1ccccc1-c1c[nH]cc1C(=O)N[C@H]1[C@@H]2C[C@@](O)(c3cc(Cl)cc4[nH]ncc34)C[C@@H]21 [Example 127, N-((1R,3r,5S,6r)-3-(6-chloro-1H-indazol-4-yl)-3-hydroxybicyclo[3.1.0]hexan-6-yl)-4-(2-methoxyphenyl)-1H-pyrrole-3-carboxamide]
IC50 [1]: ≤ 500 nM
IC50 [2]: > 5000 nM

CCNS(=O)(=O)N[C@H]1[C@@H]2C[C@@](O)(c3cc(Cl)cc4[nH]ncc34)C[C@@H]21 [Example 128, N′-ethyl-N-((1R,3r,5S,6r)-3-(6-chloro-1H-indazol-4-yl)-3-hydroxybicyclo[3.1.0]hexan-6-yl)sulfuric diamide]
IC50 [1]: ≤ 500 nM
IC50 [2]: 500 to 1000 nM

O=C(N[C@H]1[C@@H]2C[C@@](O)(c3cc(Cl)cc4cn[nH]c34)C[C@@H]21)c1ccccc1 [Example 129, N-((1R,3r,5S,6r)-3-(5-chloro-1H-indazol-7-yl)-3-hydroxybicyclo[3.1.0]hexan-6-yl)benzamide]
IC50 [1]: 1000 to 5000 nM
IC50 [2]: 1000 to 5000 nM

O=C(N[C@H]1[C@@H]2C[C@@](O)(c3cc(Cl)cc4cn[nH]c34)C[C@@H]21)c1ccncc1 [Example 130, N-((1R,3r,5S,6r)-3-(5-chloro-1H-indazol-7-yl)-3-hydroxybicyclo[3.1.0]hexan-6-yl)isonicotinamide]
IC50 [1]: 1000 to 5000 nM
IC50 [2]: 500 to 1000 nM

O=S(=O)(N[C@H]1[C@@H]2C[C@@](O)(c3cc(Cl)cc4cn[nH]c34)C[C@@H]21)c1ccccc1 [Example 131, N-((1R,3r,5S,6r)-3-(5-chloro-1H-indazol-7-yl)-3-hydroxybicyclo[3.1.0]hexan-6-yl)benzenesulfonamide]
IC50 [1]: 1000 to 5000 nM
IC50 [2]: > 5000 nM

O=C(Nc1ccccc1)N[C@H]1[C@@H]2C[C@@](O)(c3cc(Cl)cc4cn[nH]c34)C[C@@H]21 [Example 132, 1-((1R,3r,5S,6r)-3-(5-chloro-1H-indazol-7-yl)-3-hydroxybicyclo[3.1.0]hexan-6-yl)-3-phenylurea]
IC50 [1]: 500 to 1000 nM
IC50 [2]: 1000 to 5000 nM

CNC(=O)N[C@H]1[C@@H]2C[C@@](O)(c3cc(Cl)cc4cn[nH]c34)C[C@@H]21 [Example 133, 1-((1R,3r,5S,6r)-3-(5-chloro-1H-indazol-7-yl)-3-hydroxybicyclo[3.1.0]hexan-6-yl)-3-methylurea]
IC50 [1]: 1000 to 5000 nM
IC50 [2]: > 5000 nM

O=C(c1nc2cc(Cl)ccc2[nH]1)N1C[C@@H]2C[C@@](O)(c3cc(Cl)cc4[nH]ncc34)C[C@@H]2C1 [Example 134, (5-chloro-1H-benzo[d]imidazol-2-yl)((3aR,5r,6aS)-5-(6-chloro-1H-indazol-4-yl)-5-hydroxyhexahydrocyclopenta[c]pyrrol-2(1H)-yl)methanone]
IC50 [1]: ≤ 500 nM
IC50 [2]: 1000 to 5000 nM

NC(=O)N[C@H]1[C@@H]2C[C@@](O)(c3cc(Cl)cc4[nH]ncc34)C[C@@H]21 [Example 135, 1-((1R,3r,5S,6r)-3-(6-chloro-1H-indazol-4-yl)-3-hydroxybicyclo[3.1.0]hexan-6-yl)urea]
IC50 [1]: ≤ 500 nM
IC50 [2]: > 5000 nM

O=C(N[C@H]1[C@@H]2C[C@@](O)(c3cc(Cl)cc4[nH]ncc34)C[C@@H]21)c1nc2cc(Cl)ccc2[nH]1 [Example 136, 5-chloro-N-((1R,3r,5S,6r)-3-(6-chloro-1H-indazol-4-yl)-3-hydroxybicyclo[3.1.0]hexan-6-yl)-1H-benzo[d]imidazole-2-carboxamide]
IC50 [1]: ≤ 500 nM
IC50 [2]: 1000 to 5000 nM

N#CCC(=O)N[C@H]1[C@@H]2C[C@@](O)(c3cc(Cl)cc4[nH]ncc34)C[C@@H]21 [Example 137, N-((1R,3r,5S,6r)-3-(6-chloro-1H-indazol-4-yl)-3-hydroxybicyclo[3.1.0]hexan-6-yl)-2-cyanoacetamide]
IC50 [1]: ≤ 500 nM
IC50 [2]: 1000 to 5000 nM

O=C(CC(F)(F)F)N[C@H]1[C@@H]2C[C@@](O)(c3cc(Cl)cc4[nH]ncc34)C[C@@H]21 [Example 138, N-((1R,3r,5S,6r)-3-(6-chloro-1H-indazol-4-yl)-3-hydroxybicyclo[3.1.0]hexan-6-yl)-3,3,3-trifluoropropanamide]
IC50 [1]: ≤ 500 nM
IC50 [2]: > 5000 nM

O=S(=O)(CC(F)(F)F)N[C@H]1[C@@H]2C[C@@](O)(c3cc(Cl)cc4[nH]ncc34)C[C@@H]21 [Example 139, N-((1R,3r,5S,6r)-3-(6-chloro-1H-indazol-4-yl)-3-hydroxybicyclo[3.1.0]hexan-6-yl)-2,2,2-trifluoroethanesulfonamide]
IC50 [1]: ≤ 500 nM
IC50 [2]: 500 to 1000 nM

NS(=O)(=O)N[C@H]1[C@@H]2C[C@@](O)(c3cc(Cl)cc4[nH]ncc34)C[C@@H]21 [Example 140, N-((1R,3r,5S,6r)-3-(6-chloro-1H-indazol-4-yl)-3-hydroxybicyclo[3.1.0]hexan-6-yl)sulfuric diamide]
IC50 [1]: ≤ 500 nM
IC50 [2]: ≤ 500 nM

CS(=O)(=O)Nc1cccc(C(=O)N[C@H]2[C@@H]3C[C@@](O)(c4cc(Cl)cc5[nH]ncc45)C[C@@H]32)c1 [Example 141, N-((1R,3r,5S,6r)-3-(6-chloro-1H-indazol-4-yl)-3-hydroxybicyclo[3.1.0]hexan-6-yl)-3-(methylsulfonamido)benzamide]
IC50 [1]: 500 to 1000 nM
IC50 [2]: > 5000 nM

O=C(N[C@H]1[C@@H]2C[C@@](O)(c3cc(Cl)cc4[nH]ncc34)C[C@@H]21)c1cccc(C(F)(F)F)c1 [Example 142, N-((1R,3r,5S,6r)-3-(6-chloro-1H-indazol-4-yl)-3-hydroxybicyclo[3.1.0]hexan-6-yl)-3-(trifluoromethyl)benzamide]
IC50 [1]: ≤ 500 nM
IC50 [2]: ≤ 500 nM

O=C(N[C@H]1[C@@H]2C[C@@](O)(c3cc(Cl)cc4[nH]ncc34)C[C@@H]21)c1cccc(F)c1 [Example 143, N-((1R,3r,5S,6r)-3-(6-chloro-1H-indazol-4-yl)-3-hydroxybicyclo[3.1.0]hexan-6-yl)-3-fluorobenzamide]
IC50 [1]: ≤ 500 nM
IC50 [2]: ≤ 500 nM

N#Cc1cccc(C(=O)N[C@H]2[C@@H]3C[C@@](O)(c4cc(Cl)cc5[nH]ncc45)C[C@@H]32)c1 [Example 144, N-((1R,3r,5S,6r)-3-(6-chloro-1H-indazol-4-yl)-3-hydroxybicyclo[3.1.0]hexan-6-yl)-3-cyanobenzamide]
IC50 [1]: ≤ 500 nM
IC50 [2]: ≤ 500 nM

O=C(N[C@H]1[C@@H]2C[C@@](O)(c3cc(Cl)cc4[nH]ncc34)C[C@@H]21)c1cccc(OC(F)(F)F)c1 [Example 145, N-((1R,3r,5S,6r)-3-(6-chloro-1H-indazol-4-yl)-3-hydroxybicyclo[3.1.0]hexan-6-yl)-3-(trifluoromethoxy)benzamide]
IC50 [1]: ≤ 500 nM
IC50 [2]: ≤ 500 nM
